From paper PMC11862924, “Phenylpyrazoles as Inhibitors of the m^6A RNA-Binding Protein YTHDF2” (JACS Au, 2025)
“Also recorded” adds a separate entry of the source.

What was measured:
[1] = target: T1, YTHDF2 (residues 383–553) (Homo sapiens, UniProt Q9Y5A9); test: Fluorescence polarization (FP) assay, YTHDF2–m6A RNA interaction; assay type: binding; details: 100 μM compound; YTHDF2 (residues 383–553, 20 nM), FAM-labeled m6A RNA probe 5 nM; average ± SD
T1 construct: A YTHDF2 YTH domain construct (residues 383–553) was subcloned to a pOPIN plasmid; made in house; host or cells: Escherichia coli BL21(DE3)
T1 sequence (Q9Y5A9 383-553): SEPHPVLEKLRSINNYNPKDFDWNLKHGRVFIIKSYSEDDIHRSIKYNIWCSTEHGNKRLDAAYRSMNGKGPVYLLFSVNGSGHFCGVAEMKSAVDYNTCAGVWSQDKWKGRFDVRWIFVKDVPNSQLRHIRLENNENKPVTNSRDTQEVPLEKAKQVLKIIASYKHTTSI
Experimental: The FP assay was performed in 384-well black plates (Corning no. 4514) with a total reaction volume of 15 μL. The final concentrations of protein (YTHDF2) and RNA were […], respectively, in a buffer containing 20 mM HEPES/KOH pH 7.5, 50 mM NaCl, 0.005% Tween 20, and 1 mM GSH (DTT). Compounds were incubated with protein, added FAM-m^6A RNA probe ([…](m6)ACUGUG) (purchased from IDT), and incubated at 4 °C for 30 min. The fluorescence polarization was measured using a plate reader (TECAN Spark) under an excitation wavelength of 485 nm and an emission wavelength of 535 nm with a bandwidth of 20 nm. […] The data were determined using GraphPad Prism 9.

YTHDF2 [2] = target: T2, YTHDF2 (Homo sapiens, UniProt Q9Y5A9); test: Electrophoretic mobility shift assay (EMSA); assay type: binding; details: for inhibition of the YTHDF2–m6A RNA interaction in EMSA at 100 μM (in words): 100 μM compound, 250 nM YTHDF2, FAM-labeled m6A RNA; for concentration-dependent inhibition of YTHDF2–m6A RNA complex formation in EMSA (in words): 3.1–100 μM compound, 250 nM YTHDF2, 20 nM FAM-labelled m6A RNA
T2 construct: A YTHDF2 YTH domain construct (residues 383–553) was subcloned to a pOPIN plasmid; made in house; host or cells: Escherichia coli BL21(DE3)
T2 sequence (Q9Y5A9 383-553): T1 sequence (Q9Y5A9 383-553)
Experimental: Compounds with different concentrations (3.1–100 μM) were incubated with 250 nM YTH-domain and 20 nM FAM-17mer-RNA in a buffer containing 20 mM HEPES, pH 8.2, 50 mM NaCl, 0.05% Triton X-100, and 5% v/v glycerol for 20 min at 4 °C. […] Gel imaging was performed in ChemiDoc MP (Bio-Rad), and Cy2/Alexa488 fluorescence was detected with a 1-min exposure time. Quantification of the gel image was performed by ImageJ.

YTHDF2 [3] = target: T2, YTHDF2; test: nanoDSF thermal shift assay; assay type: binding; details: for ΔTm at 5 µM: 5 μM compound; for ΔTm at 10 µM: 10 μM compound; for ΔTm at 25 µM: 25 μM compound
Experimental: NanoDSF was measured on a NanoTemper instrument (Prometheus NT.48). YTHDF2 protein was used at a concentration of 5 μM and incubated with 50, 25, 10, and 5 μM compound in buffer (100 mM KPi, pH 7.0, 250 mM NaCl, 10% Glycerol) for 50 min, in which 0.1% DMSO was used as the reference. The heat rate was set to 1 °C per minute, measured in a range between 20 and 90 °C.

[4] = MTT cytotoxicity assay, JAR; assay type: cell-based; details: human, JAR cells, triplicates, read-out: Cytotoxicity against cancer cells (IC50), JAR
Experimental: (§1) JAR, K562, and HCT116 cells were seeded in 96-well plates (3500 cells/well) and incubated for 8 h. The medium with different concentrations of compounds (100, 33.3, 11.1, 3.7, 1.2, and 0.4 μM) was added to the 96-well plates. Data were normalized to the medium with 0.1% DMSO. After incubation for 72 h, MTT solution (5 mg/mL, 20 μL) was added per well in a dark environment and incubated for 4 h. After the medium was discarded, DMSO (150 μL) was added per well, and the absorbance was measured at 492 nm by a plate reader (TECAN Spark).

[5] = MTT cytotoxicity assay, K562; assay type: cell-based; details: human, K562 cells, triplicates, read-out: Cytotoxicity against cancer cells (IC50), K562
Experimental: as §1

[6] = MTT cytotoxicity assay, HCT116; assay type: cell-based; details: human, HCT116 cells, triplicates, read-out: Cytotoxicity against cancer cells (IC50), HCT116
Experimental: as §1

JAR = test: CCK-8 proliferation assay, JAR; assay type: cell-based; details: Homo sapiens; CCK-8 kit assay, triplicates, 72 h; read-out: Anti-proliferation activity against cancer cells (IC50), JAR
Experimental: (§2) The JAR, K562, HCT116, and MOLM13 cells were seeded in 96-well plates (3000 cells/well). After being cultured overnight, compounds were added together with the DMSO treatment (0.1%) as a control. After 72 h, CCK-8 solution (Vazyme, A311) was added, and the cells were incubated at 37 °C for 4 h. The absorbance was measured at 450 nm using a plate reader (TECAN Spark).

K562 = test: CCK-8 proliferation assay, K562; assay type: cell-based; details: Homo sapiens, CCK-8 kit assay, triplicates, 72 h, read-out: Anti-proliferation activity against cancer cells (IC50), K562
Experimental: as §2

HCT116 = test: CCK-8 proliferation assay, HCT116; assay type: cell-based; details: Homo sapiens, HCT-116; CCK-8 kit assay, triplicates, 72 h; read-out: Anti-proliferation activity against cancer cells (IC50), HCT116
Experimental: as §2

YTHDF2 YTH domain = target: T3, YTHDF2 YTH domain (Homo sapiens, UniProt Q9Y5A9); test: AlphaScreen assay; details: for inhibition at 100 μM in AlphaScreen: 100 μM compound; for inhibitory IC50 in AlphaScreen (in words): Figures S3 and S4
T3 sequence (Q9Y5A9 383-553): T1 sequence (Q9Y5A9 383-553)
Experimental: Initially, the YTHDF2 YTH domain at different concentrations (0–2500 nM) was incubated with varied concentrations of RNA probes (5’-Bi-CGAm6ACUGUC–3′, IDT company) (5, 25, 50, and 100 nM) in 25 mM Hepes (pH 7.5), 100 mM NaCl, and 0.1% BSA to probe the optimal ratio between protein and RNA before the detection signal reached saturation. The AlphaScreen Histidine Detection Kit (Nickel Chelate) (PerkinElmer) 6760619 M and white 384-well Optiplates (PerkinElmer) were used. Anti-His receptor beads (PerkinElmer) (final concentration: 20 μg/mL) and streptavidin donor beads (final concentration: 20 μg/mL) were first added. The reaction mixture was then incubated at room temperature in a dark environment for 1 h to reach equilibrium. The optical signal was detected using a Tecan plate reader.
The inhibitory activities of the phenylpyrazoles (at 100 µM) against YTHDF2 binders
in the amplified luminescent proximity homogeneous assay (AlphaScreen).
phenylpyrazoles featuring a 2 -hydroxybenzoyl moiety R1 (blue) and a 4 -carboxyphenyl moiety
represent average values ± s.d.

| Structure (SMILES) | inhibition at 100 µM [1] | inhibition of the YTHDF2–m6A RNA interaction in EMSA at 100 μM (in words) (YTHDF2 [2]) | concentration-dependent inhibition of YTHDF2–m6A RNA complex formation in EMSA (in words) (YTHDF2 [2]) | ΔTm at 5 µM (YTHDF2 [3]) | ΔTm at 10 µM (YTHDF2 [3]) | ΔTm at 25 µM (YTHDF2 [3]) | IC50 at 72 h [4] | IC50 at 72 h [5] | IC50 at 72 h [6] | IC50 (JAR) | IC50 (K562) | IC50 (HCT116) | inhibition at 100 μM in AlphaScreen (YTHDF2 YTH domain) | inhibitory IC50 in AlphaScreen (in words) (YTHDF2 YTH domain) |
| --- | --- | --- | --- | --- | --- | --- | --- | --- | --- | --- | --- | --- | --- | --- |
| CC(C)c1ccc(O)c(C(=O)c2cnn(-c3ccc(C(=O)O)cc3)c2)c1 [CK-55] | 41.8 ± 3.2% | potent inhibition; also recorded: potently inhibited | dose-dependently inhibited | 0.15 ± 0.14 °C | 0.43 ± 0.11 °C | 1.48 ± 0.52 °C | 44.4 ± 13.5 µM | 32.4 ± 22.1 µM | 49.5 ± 8.5 µM | > 50 µM | 31.2 ± 8.9 µM | > 50 µM | > 80% | low double-digit micromolar |
| O=C(O)c1ccc(-n2cc(C(=O)c3cc(F)ccc3O)cn2)cc1 [CK-56] | 37.4 ± 3.9% | potent inhibition |  |  |  |  | 41.2 ± 14.1 µM | 23.9 ± 7.5 µM | 19.3 ± 2.5 µM | > 50 µM | > 50 µM | > 50 µM |  |  |
| O=C(O)c1ccc(-n2cc(C(=O)c3cc([N+](=O)[O-])ccc3O)cn2)cc1 [CK-62] | 34.4 ± 7.1% | potent inhibition; also recorded: potently inhibited | dose-dependently inhibited | 0.3 ± 0.05 °C | 0.5 ± 0.14 °C | 0.48 ± 0.3 °C | 42.6 ± 18.5 µM | > 50 µM | > 50 µM | > 50 µM | > 50 µM | > 50 µM |  |  |
| CCc1ccc(O)c(C(=O)c2cnn(-c3ccc(C(=O)O)cc3)c2)c1 [CK-65] | 35.4 ± 6.5% |  |  |  |  |  | > 50 µM | > 50 µM | > 50 µM | 45.6 ± 3.9 µM | 43.9 ± 12 µM | > 50 µM |  |  |
| COc1ccc(O)c(C(=O)c2cnn(-c3ccc(C(=O)O)cc3)c2)c1 [CK-66] | 63.2 ± 6.9% |  |  |  |  |  | > 50 µM | > 50 µM | > 50 µM | 47.3 ± 6.3 µM | 38.8 ± 3.7 µM | 47.2 ± 8.7 µM | > 80% | low double-digit micromolar |
| O=C(O)c1ccc(-n2cc(C(=O)c3cc(Cl)ccc3O)cn2)cc1 [CK-67] | 41.1 ± 7.7% | potent inhibition; also recorded: potently inhibited | dose-dependently inhibited | 0.47 ± 0.11 °C | 1.35 ± 0.66 °C | 2.27 ± 0.26 °C | > 50 µM | 34.9 ± 13.4 µM | 48.5 ± 4.9 µM | 38.5 ± 9.2 µM | 33.4 ± 3.3 µM | 41.6 ± 8.2 µM | > 80% | low double-digit micromolar |
| O=C(O)c1ccc(-n2cc(C(=O)c3ccc(Br)cc3O)cn2)cc1 [CK-70] | 17.4 ± 10.5% | potent inhibition; also recorded: potently inhibited | dose-dependently inhibited | 0.63 ± 0.08 °C | 1.42 ± 0.36 °C | 2.42 ± 0.24 °C | > 50 µM | 42.1 ± 14.6 µM | 36.4 ± 2.8 µM | 48.5 ± 3.9 µM | 45.5 ± 6.2 µM | > 50 µM |  |  |
| Cc1ccc(C(=O)c2cnn(-c3ccc(C(=O)O)cc3)c2)c(O)c1 [CK-73] | 26.3 ± 6.8% |  |  |  |  |  | > 50 µM | > 50 µM | > 50 µM | > 50 µM | > 50 µM | > 50 µM |  |  |
| COc1cccc(O)c1C(=O)c1cnn(-c2ccc(C(=O)O)cc2)c1 [CK-85] | 64.7 ± 8.4% |  |  |  |  |  | > 50 µM | > 50 µM | > 50 µM | 46.2 ± 2.6 µM | > 50 µM | > 50 µM |  |  |
| O=C(O)c1ccc(-n2cc(C(=O)c3cc(F)cc(F)c3O)cn2)cc1 [CK-86] | 54.6 ± 8.4% |  |  |  |  |  | > 50 µM | > 50 µM | > 50 µM | > 50 µM | > 50 µM | > 50 µM |  |  |
| O=C(O)c1ccc(-n2cc(C(=O)c3ccc(Cl)cc3O)cn2)cc1 [CK-88] | 28.8 ± 0.1% |  |  |  |  |  | 25 ± 3.6 µM | 43.2 ± 10.4 µM | > 50 µM | 39 ± 3.2 µM | 48.2 ± 6.3 µM | > 50 µM |  |  |
| O=C(O)c1ccc(-n2cc(C(=O)c3ccc(F)cc3O)cn2)cc1 [CK-89] | 44.4 ± 1.8% |  |  |  |  |  | > 50 µM | 43.8 ± 22.7 µM | 32.8 ± 7.5 µM | > 50 µM | > 50 µM | > 50 µM |  |  |
| O=C(O)c1ccc(-n2cc(C(=O)c3cccc(Cl)c3O)cn2)cc1 [CK-96] | 52.2 ± 10.1% |  |  |  |  |  | 40.2 ± 12.7 µM | 25.4 ± 7.8 µM | 20.6 ± 8.1 µM | > 50 µM | > 50 µM | > 50 µM |  |  |
